{
  "source": "patent US10993937B2",
  "about": "“Composition, for preventing or treating dry eye syndrome, containing polyethylene glycol and flavonoid nanocomposite as active ingredient” (INJE UNIVERSITY INDUSTRY-ACADEMIC COOPERATION FOUNDATION, priority 2017, dated 2021)",
  "key": {"[1]": {"tested_on": "VCAM-1", "experiment": "Immunohistochemistry of lacrimal gland sections, VCAM-1 expression", "format": "in vivo, mouse", "conditions": "versus day 10 of DS and the vehicle-treated group", "protocol": "(§1) Eighty three NOD.B10.H2^b mice (6 weeks old) in total were obtained from the Jackson Laboratory (Bar Harbor, Me., USA) and performed an acclimatization process for 6 to 10 weeks. Mice were kept in a semi-pathogen free (SPF) facility, and feed and water were provided as free feed.\n(§2) Six mice were used for histopathological analysis as a baseline. Seventy seven mice were injected subcutaneously four times daily for 10 days with 500 μg/200 μL of scopolamine hydrobromide (Sigma-Aldrich) which is a muscarinic receptor blocker. At this time, the mice were exposed to desiccation stress (DS) for 10 days, including air ventilation by the fan, with an average ambient humidity of 40% or less for 18 hours daily. On day 10 after scopolamine hydrobromide injection and dryness stress exposure, tear production was measured and a photograph of the cornea was taken.\n(§3) On day 10 of DS, 11 mice were used for histopathological analysis. […] All treatments were performed by injecting five times a day and the amount of tear, corneal disorder and fluorescein scores were measured at baseline, day 10 of DS, and day 3, 5, 7, and 10 after treatment. […] In addition, expression of inflammatory factors associated with immunohistochemical staining in the lacrimal gland was evaluated. […]"}, "[2]": {"tested_on": "NOD.B10.H2^b mouse", "experiment": "Corneal fluorescence staining assay (NEI grading)", "format": "in vivo", "protocol": "as §1\nas §2, with “At this time, the mice were exposed to desiccation stress (DS) for 10 days, including air ventilation by the fan, with an average ambient humidity of 40% or less for 18 hours daily.” left out\n(§4) On day 10 of DS, 11 mice were used for histopathological analysis. […] All treatments were performed by injecting five times a day and the amount of tear, corneal disorder and fluorescein scores were measured at baseline, day 10 of DS, and day 3, 5, 7, and 10 after treatment. […] In addition, expression of inflammatory factors associated with immunohistochemical staining in the lacrimal gland was evaluated.\nFluorescence staining of the cornea was performed with reference to a previously reported paper (CLAO J. 1995; 21: 221-232). […] Punctate staining was assessed using a standard NEI (national eye institute) grading system with scores of 0 to 3 on each of the five areas of the cornea."}, "[3]": {"tested_on": "NOD.B10.H2^b mouse", "experiment": "Density of conjunctival goblet cells (PAS staining)", "format": "in vivo", "conditions": "after treatment; control 12.86±0.76, dryness stress 6.19±0.16", "protocol": "as §1, §2, §3"}, "[4]": {"tested_on": "MMP-9", "experiment": "Immunohistochemistry of lacrimal gland sections, MMP-9 expression", "format": "in vivo, mouse", "conditions": "compared with the day 10 of DS", "protocol": "as §1, §2, §3"}, "[5]": {"tested_on": "IL-6", "experiment": "Immunohistochemistry of lacrimal gland sections, IL-6 expression", "format": "in vivo, mouse", "conditions": "immunostaining; dryness stress 4.02 times of control", "protocol": "as §1, §2, §3"}, "[6]": {"tested_on": "ICAM-1", "experiment": "Immunohistochemistry of lacrimal gland sections, ICAM-1 expression", "format": "in vivo, mouse", "conditions": "versus day 10 of DS and the vehicle-treated group", "protocol": "as §1, §2, §3"}, "[7]": {"tested_on": "NOD.B10.H2^b mouse", "experiment": "Tear production analysis (phenol red-impregnated cotton threads) in mouse model of dry eye syndrome", "format": "in vivo", "conditions": "for amount of tears: 1% eye drops 5 μL five times a day, mean±SD", "protocol": "as §1, §2\nOn day 10 of DS, 11 mice were used for histopathological analysis. Sixty six mice were randomly divided into six groups: vehicle (n=11, saline of 5 μL), catechin group (n=11, 1% catechin of 5 μL), CP1 group (n=11, 1% CP1 5 μL), CP5 group (n=11, 1% CP5 5 μL), CP10 group (n=11, 1% CP10 5 μL) and PEG group (n=11, 1% PEG 5 μL). All treatments were performed by injecting five times a day and the amount of tear, corneal disorder and fluorescein scores were measured at baseline, day 10 of DS, and day 3, 5, 7, and 10 after treatment. Hematoxylin and eosin (H&E) and PAS (periodic acid Schiff) staining were performed on the cornea and conjunctiva, respectively. In addition, expression of inflammatory factors associated with immunohistochemical staining in the lacrimal gland was evaluated.\nThe amount of tears was measured with reference to a previously reported paper (Eye Contact Lens. 2006; 32(6): 272-276). […] The amount of tears was calculated by comparison with a standard curve expressed using a basic solution (1.5 L of 0.9% saline and 5 mL of 5 N sodium hydroxide (NaOH))."}, "[8]": {"tested_on": "TNF-α", "experiment": "Immunohistochemistry of lacrimal gland sections, TNF-α expression", "format": "in vivo, mouse", "conditions": "immunostaining; dryness stress 2.04 times of control", "protocol": "as §1, §2, §3"}, "[9]": {"tested_on": "NOD.B10.H2^b mouse", "experiment": "Analysis of corneal irregularities (white ring, corneal disorder score)", "format": "in vivo", "conditions": "for corneal disorder score: 5-point scale", "protocol": "as §1, §2, §4\nCorneal abnormality was measured with reference to a previously reported paper (Invest Ophthalmol Vis Sci. 2006; 47:2847-2856). […] Corneal smoothness was assessed by grading the irregularity of the corneal epithelial cells reflected in the white ring of the digital image. The reflected ring was divided into quarters and the corneal disorder score was calculated using the 5-point scale based on the number of distorted branches in the reflected ring: 0, no distortion; 1, a quarter of distortion; 2, two-quarters of distortion; 3, three-quarters of distortion; 4, four-quarters of distortion; 5, severe distortion."}, "[10]": {"tested_on": "IL-1β", "experiment": "Immunohistochemistry of lacrimal gland sections, IL-1β expression", "format": "in vivo, mouse", "conditions": "immunostaining; dryness stress 3.55 times of control", "protocol": "as §1, §2, §3"}, "[11]": {"tested_on": "IL-17", "experiment": "Immunohistochemistry of lacrimal gland sections, IL-17 expression", "format": "in vivo, mouse", "conditions": "immunostaining; dryness stress 15.35 times of control", "protocol": "as §1, §2, §3"}},
  "data": [
    {"substance": "catechin", "values": [
      {"measurement": "expression of VCAM-1, effect in words", "setting": "[1]", "result": "did not show statistically significant difference"},
      {"measurement": "corneal fluorescence staining score", "setting": "[2]; day 7 after treatment, vehicle 10.00±1.00", "result": "6.67±0.58"},
      {"measurement": "corneal fluorescence staining score", "setting": "[2]; day 10 after treatment", "result": "3.67±0.58"},
      {"measurement": "number of conjunctival goblet cells", "setting": "[3]", "result": "9.71±1.25 /0.1 mm^2"},
      {"measurement": "expression of MMP-9, effect in words", "setting": "[4]", "result": "significantly decreased the MMP-9 expression but did not recover to the control level"},
      {"measurement": "expression of IL-6 in the lacrimal gland", "setting": "[5]", "result": "no statistically significant difference with day 10 of DS"},
      {"measurement": "expression of ICAM-1, effect in words", "setting": "[6]", "result": "did not show statistically significant difference"},
      {"measurement": "amount of tears", "setting": "[7]; after 3 days of treatment", "result": "0.08 ± 0.03", "unit": "µL"},
      {"measurement": "amount of tears", "setting": "[7]; after 5 days of treatment", "result": "0.13 ± 0.01", "unit": "µL"},
      {"measurement": "days of treatment after which tear production recovered to the baseline level", "setting": "[7]; baseline 0.16±0.02 μL", "result": 5, "unit": "days"},
      {"measurement": "expression of TNF-α in the lacrimal gland", "setting": "[8]", "result": "no statistically significant difference with day 10 of DS"},
      {"measurement": "day after treatment on which white rings on the corneal surface were observed", "setting": "[9]; FIG. 2A, microscopic image", "result": 10, "unit": "days"},
      {"measurement": "corneal disorder score", "setting": "[9]; day 7 after treatment, vehicle 3.63±0.48", "result": "2.88±0.48"},
      {"measurement": "corneal disorder score", "setting": "[9]; day 10 after treatment", "result": "2.38±0.47"},
      {"measurement": "expression of IL-1β in the lacrimal gland", "setting": "[10]", "result": "no statistically significant difference with day 10 of DS"},
      {"measurement": "IL-17 expression in the lacrimal gland", "setting": "[11]", "result": "significantly decreased IL-17 expression"}
    ]}
  ]
}
